# Reference: paper PMC8881610 (Nature Communications, 2022)
# What was measured:
# GLP-1R [1] = target: T1, GLP-1R (Homo sapiens, UniProt P43220, W214A); experiment: Whole-cell binding assay, competition with 125I-GLP-1(7-36)NH2; set-up: Flag; expressed in transfected cells; conditions: GLP-1R W214A, CHO-K1
# Protocol: (§1) Human embryonic kidney 293 cells containing SV40 large T-antigen (HEK293T) were cultured in DMEM (Gibco) supplemented with 10% (v/v) fetal bovine serum (FBS, Gibco), 1 mM sodium pyruvate (Gibco) and 100 units/mL penicillin and 100 μg/mL streptomycin at 37 °C in 5% CO2. Chinese hamster ovary (CHO-K1) cells were cultured in F-12 (Gibco) containing 10% FBS, 100 units/mL penicillin and 100 μg/mL streptomycin at 37 °C in 5% CO2. For cAMP and receptor expression assays, HEK293T cells were seeded into 6-well cell culture plates at a density of 7 × 10^5 cells per well. After overnight incubation, cells were transfected with GIPR, GLP-1R or GCGR construct using Lipofectamine 2000 or Lipofectamine 3000 transfection reagent (Invitrogen). For whole-cell binding assay, CHO-K1 cells were seeded into 96-well fibronectin-treated cell culture plates at a density of 3 × 10^4 cells per well. After overnight incubation, cells were transfected with GIPR, GLP-1R or GCGR construct using Lipofectamine 2000 transfection reagent (Invitrogen). Following 24 h culturing, the transfected cells were ready for use.
# (§2) For GLP-1R and GCGR, CHO-K1 cells (30,000 cells/well) were seeded into Isoplate-96 plates and incubated for 24 h at 37 °C in 5% CO2. The WT or mutant constructs were transiently transfected using Lipofectamine 2000 transfection reagent as previous described. They were then washed twice using F-12 with 0.1% BSA or 0.1% casein, 33 mM HEPES, and incubated for 2 h at 37 °C. […] Cells were washed three times with ice-cold PBS and lysed in PBS with 1% Triton X-100, 20 mM Tris-HCl. After addition of scintillation cocktail (PerkinElmer), radioactivity (CPM) was counted on a MicroBeta^2 microplate counter (PerkinElmer). Data were normalized to the WT response and analyzed using three-parameter logistic equation.
# GLP-1R [2] = target: T2, GLP-1R (Homo sapiens, UniProt P43220, Y148A); experiment: as above; set-up: Flag; expressed in transfected cells; conditions: GLP-1R Y148A, CHO-K1
# Protocol: as §1, §2
# GLP-1R [3] = target: T1, GLP-1R; experiment: cAMP accumulation assay, GLP-1R WT, mutant or modified constructs; assay type: cell-based; set-up: Flag; expressed in transfected cells; host or cells: HEK293T; conditions: GLP-1R W214A, HEK293T; for Emax: HEK-293T
# Method in brief: (§3)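 HEK293T cells transiently expressing wild-type, mutant or modified human GLP-1R (HA signal peptide constructs) were used. Cells were stimulated with peptide agonists for 40 min at room temperature in HBSS with 0.5 mM IBMX and 0.1% BSA or casein. cAMP was quantified by LANCE Ultra TR-FRET (620/650 nm).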
# GLP-1R [4] = target: T2, GLP-1R; experiment: as above; assay type: cell-based; set-up: Flag; expressed in transfected cells; host or cells: HEK293T; conditions: GLP-1R Y148A, HEK293T; for Emax: HEK-293T
# Method in brief: as §3
# GIPR = target: T3, GIPR (Homo sapiens, UniProt P48546, T345F); experiment: Whole-cell binding assay, competition with 125I-GIP1-42; set-up: acylated tirzepatide to the full-length or modified; Flag; expressed in transfected cells; conditions: GIPR T345F; CHO-K1; read-out: binding pIC50 (converted)
# T3 sequence (P48546 22-466 T345F): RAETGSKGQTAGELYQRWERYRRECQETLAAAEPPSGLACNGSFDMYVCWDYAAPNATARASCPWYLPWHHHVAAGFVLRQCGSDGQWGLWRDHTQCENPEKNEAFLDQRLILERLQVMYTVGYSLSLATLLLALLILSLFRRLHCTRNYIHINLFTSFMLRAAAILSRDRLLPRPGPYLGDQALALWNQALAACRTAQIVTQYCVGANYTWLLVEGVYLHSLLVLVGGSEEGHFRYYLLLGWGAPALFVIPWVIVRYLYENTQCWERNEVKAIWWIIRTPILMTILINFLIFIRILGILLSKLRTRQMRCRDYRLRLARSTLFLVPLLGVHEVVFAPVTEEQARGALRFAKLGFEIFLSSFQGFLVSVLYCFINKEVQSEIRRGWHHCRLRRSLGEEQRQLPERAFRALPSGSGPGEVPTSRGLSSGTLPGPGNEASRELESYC
# Method in brief: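 Transiently transfected CHO-K1 cells expressing WT or mutant GIPR were washed in F-12 with 0.1% BSA or 0.1% casein and 33 mM HEPES, then incubated 2 h at 37 °C. After ice-cold PBS washes, cells were lysed and bound radioactivity counted (CPM).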
# [5] = read-out: binding pIC50 (converted)
# [6] = read-out: cAMP pEC50 (converted)
# T1 sequence (P43220 24-463 W214A): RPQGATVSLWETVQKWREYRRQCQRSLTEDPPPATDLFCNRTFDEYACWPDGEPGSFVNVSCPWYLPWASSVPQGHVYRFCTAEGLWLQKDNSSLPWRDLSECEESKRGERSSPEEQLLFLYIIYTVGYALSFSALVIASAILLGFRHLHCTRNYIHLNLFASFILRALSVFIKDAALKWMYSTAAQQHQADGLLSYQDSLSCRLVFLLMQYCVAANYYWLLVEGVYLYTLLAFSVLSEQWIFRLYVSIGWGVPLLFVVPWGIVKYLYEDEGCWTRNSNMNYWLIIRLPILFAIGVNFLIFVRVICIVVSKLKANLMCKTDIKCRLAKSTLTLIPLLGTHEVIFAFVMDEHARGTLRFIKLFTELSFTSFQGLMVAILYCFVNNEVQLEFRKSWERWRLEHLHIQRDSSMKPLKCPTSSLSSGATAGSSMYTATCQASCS
# T2 sequence (P43220 24-463 Y148A): as the sequence (P43220 24-463 W214A) above, with Y125A, A191W counted along it
Structure (SMILES),binding Span (GLP-1R [1]) [% WT],IC50 (GLP-1R [1]; [5]) [nM],binding Span (GLP-1R [2]) [% WT],IC50 (GLP-1R [2]; [5]) [nM],EC50 (GLP-1R [3]; [6]) [nM],Emax (GLP-1R [3]) [%],EC50 (GLP-1R [4]; [6]) [nM],Emax (GLP-1R [4]) [%],IC50 (GIPR) [nM]
CCCCCCCCCCCCCCCC(=O)N[C@@H](CCC(=O)NCCCC[C@H](NC(=O)[C@H](CC(=O)O)NC(=O)[C@H](CO)NC(=O)[C@@H](NC(=O)[C@H](Cc1ccccc1)NC(=O)[C@@H](NC(=O)CNC(=O)[C@H](CCC(N)=O)NC(=O)C(C)(C)NC(=O)[C@@H](N)Cc1c[nH]cn1)[C@@H](C)O)[C@@H](C)O)C(=O)N[C@@H](CO)C(=O)N[C@@H](CCCCN)C(=O)N[C@@H](Cc1ccc(O)cc1)C(=O)N[C@@H](CC(C)C)C(=O)N[C@@H](CC(=O)O)C(=O)N[C@@H](CCC(=O)O)C(=O)N[C@@H](CCCNC(=N)N)C(=O)N[C@@H](C)C(=O)N[C@@H](C)C(=O)N[C@@H](CCC(N)=O)C(=O)N[C@@H](CC(=O)O)C(=O)N[C@@H](Cc1ccccc1)C(=O)N[C@H](C(=O)N[C@@H](CCC(N)=O)C(=O)N[C@@H](Cc1c[nH]c2ccccc12)C(=O)N[C@@H](CC(C)C)C(=O)N[C@@H](CC(C)C)C(=O)N[C@@H](CC(=O)O)C(=O)NCC(=O)NCC(=O)N1CCC[C@H]1C(=O)N[C@@H](CO)C(=O)N[C@@H](CO)C(=O)NCC(=O)N[C@@H](C)C(=O)N1CCC[C@H]1C(=O)N1CCC[C@H]1C(=O)N1CCC[C@H]1C(=O)N[C@@H](CO)C(N)=O)C(C)C)C(=O)O [Peptide 20],10.25 ± 1.71,17,8.73 ± 2.65,15.5,0.00977,100.4 ± 0.94,0.00501,101 ± 1.26,24
CC[C@H](C)[C@H](NC(=O)[C@H](CC(C)C)NC(=O)[C@H](Cc1c[nH]c2ccccc12)NC(=O)[C@H](CCC(N)=O)NC(=O)[C@@H](NC(=O)[C@H](Cc1ccccc1)NC(=O)[C@H](C)NC(=O)[C@H](CCCCNC(=O)COCCOCCNC(=O)COCCOCCNC(=O)CC[C@H](NC(=O)CCCCCCCCCCCCCCCCCCC(=O)O)C(=O)O)NC(=O)[C@H](CCC(N)=O)NC(=O)[C@H](C)NC(=O)[C@@H](NC(=O)[C@H](CCCCN)NC(=O)[C@H](CC(=O)O)NC(=O)[C@H](CC(C)C)NC(=O)C(C)(C)NC(=O)[C@@H](NC(=O)[C@H](CO)NC(=O)[C@H](Cc1ccc(O)cc1)NC(=O)[C@H](CC(=O)O)NC(=O)[C@H](CO)NC(=O)[C@@H](NC(=O)[C@H](Cc1ccccc1)NC(=O)[C@@H](NC(=O)CNC(=O)[C@H](CCC(=O)O)NC(=O)C(C)(C)NC(=O)[C@@H](N)Cc1ccc(O)cc1)[C@@H](C)O)[C@@H](C)O)[C@@H](C)CC)[C@@H](C)CC)C(C)C)C(=O)N[C@@H](C)C(=O)NCC(=O)NCC(=O)N1CCC[C@H]1C(=O)N[C@@H](CO)C(=O)N[C@@H](CO)C(=O)NCC(=O)N[C@@H](C)C(=O)N1CCC[C@H]1C(=O)N1CCC[C@H]1C(=O)N1CCC[C@H]1C(=O)N[C@@H](CO)C(N)=O [Tirzepatide],11.88 ± 1.32,,12.31 ± 2.51,,,99.1 ± 1.05,,102 ± 2.33,129
